How the values were obtained:
[1] = tested on: normal NK cells expanded with K562-aAPC; assay: percent inhibition of viability; higher = more inhibition; conditions: 72 h, IL-2 2.5 ng/mL
Method: (§1)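 Drug sensitivity and resistance testing on K562-aAPC-expanded normal NK cells: 5 concentrations (10-fold steps over a 10,000-fold range), 72 h at 37 °C, viability by CellTiter-Glo normalised to DMSO and benzethonium chloride controls; DSS from the fitted curve.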

DERL-7 (IL-2 2.5 ng/mL) [2] = assay: as above; conditions: 72 h
IMC-1 (IL-2 20 ng/mL) [3] = assay: as above; conditions: 72 h
KAI3 (IL-2 2.5 ng/mL) [4] = assay: as above; conditions: 72 h
KHYG-1 (IL-2 2.5 ng/mL) [5] = assay: as above; conditions: 72 h
NK-92 (IL-2 2.5 ng/mL) [6] = assay: as above; conditions: 72 h
NK-YS (IL-2 2.5 ng/mL) [7] = assay: as above; conditions: 72 h
NKL (IL-2 2.5 ng/mL) [8] = assay: as above; conditions: 72 h
SNK-6 (IL-2 2.5 ng/mL) [9] = assay: as above; conditions: 72 h
YT (IL-2 2.5 ng/mL) [10] = assay: as above; conditions: 72 h
[11] = tested on: normal primary NK cells, pool 1 (3 donors) (IL-2 2.5 ng/mL); assay: as above; conditions: 72 h
[12] = tested on: normal primary NK cells, pool 1 (3 donors), resting (IL-2 0 ng/mL); assay: as above; conditions: 72 h
[13] = tested on: normal primary NK cells, pool 2 (3 donors) (IL-2 2.5 ng/mL); assay: as above; conditions: 72 h
[14] = tested on: normal primary NK cells, pool 3 (3 donors) (IL-2 2.5 ng/mL); assay: as above; conditions: 72 h
[15] = tested on: normal NK cells expanded with K562-aAPC; assay: drug sensitivity score (DSS) (DSS units); higher = more sensitive; extreme values may be limits of the assay; conditions: 72 h; IL-2 2.5 ng/mL
Method: as §1

DERL-7 (IL-2 2.5 ng/mL) [16] = assay: as above; conditions: 72 h
IMC-1 (IL-2 20 ng/mL) [17] = assay: as above; conditions: 72 h
KAI3 (IL-2 2.5 ng/mL) [18] = assay: as above; conditions: 72 h
KHYG-1 (IL-2 2.5 ng/mL) [19] = assay: as above; conditions: 72 h
NK-92 (IL-2 2.5 ng/mL) [20] = assay: as above; conditions: 72 h
NK-YS (IL-2 2.5 ng/mL) [21] = assay: as above; conditions: 72 h
NKL (IL-2 2.5 ng/mL) [22] = assay: as above; conditions: 72 h
SNK-6 (IL-2 2.5 ng/mL) [23] = assay: as above; conditions: 72 h
YT (IL-2 2.5 ng/mL) [24] = assay: as above; conditions: 72 h
[25] = tested on: normal primary NK cells, pool 1 (3 donors) (IL-2 2.5 ng/mL); assay: as above; conditions: 72 h
[26] = tested on: normal primary NK cells, pool 1 (3 donors), resting (IL-2 0 ng/mL); assay: as above; conditions: 72 h
[27] = tested on: normal primary NK cells, pool 2 (3 donors) (IL-2 2.5 ng/mL); assay: as above; conditions: 72 h
[28] = tested on: normal primary NK cells, pool 3 (3 donors) (IL-2 2.5 ng/mL); assay: as above; conditions: 72 h

COc1cc2c(Oc3ccc4[nH]c(C)cc4c3F)ncnc2cc1OCCCN1CCCC1 [Cediranib] (max concentration tested 1000 nM)
percent inhibition of viability [%]
Conditions	0.1 nM	1 nM	10 nM	100 nM	1000 nM
DERL-7 (IL-2 2.5 ng/mL) [2]	0.36	1.65	5.2	3.45	7.76
IMC-1 (IL-2 20 ng/mL) [3]	-5.84	1.16	-0.8	8.28	17.6
KAI3 (IL-2 2.5 ng/mL) [4]	4.2	-2.39	-4.78	-7.3	2.49
KHYG-1 (IL-2 2.5 ng/mL) [5]	4.26	1.2	0.25	3.56	5.7
NK-92 (IL-2 2.5 ng/mL) [6]	-10.6	3.93	7.82	10.5	25.9
NK-YS (IL-2 2.5 ng/mL) [7]	-2.57	-1.64	-1.64	-2.9	4.62
NKL (IL-2 2.5 ng/mL) [8]	-22.1	-12.6	-8.18	4.3	-2.96
SNK-6 (IL-2 2.5 ng/mL) [9]	-0.01	-5.98	-7.81	1.67	-2.98
YT (IL-2 2.5 ng/mL) [10]	-2.86	-1.1	-1.25	-2.55	7.27
[1]	-3.67	-0.35	-1.67	10.2	9.48
[11]	4.11	-11.2	-8.24	-9.08	-10.8
[12]	4.39	-7.82	2.26	-0.33	6.25
[13]	-4.71	1.73	4.28	-4.99	7
[14]	-13.7	-14.2	-5.69	-12.7	-3.19

Conditions	drug sensitivity score
DERL-7 (IL-2 2.5 ng/mL) [16]	0
IMC-1 (IL-2 20 ng/mL) [17]	1.2
KAI3 (IL-2 2.5 ng/mL) [18]	0
KHYG-1 (IL-2 2.5 ng/mL) [19]	0
NK-92 (IL-2 2.5 ng/mL) [20]	1.88
NK-YS (IL-2 2.5 ng/mL) [21]	0
NKL (IL-2 2.5 ng/mL) [22]	0
SNK-6 (IL-2 2.5 ng/mL) [23]	0
YT (IL-2 2.5 ng/mL) [24]	0
[15]	0.03
[25]	0
[26]	0
[27]	0
[28]	0

Source: the supplement of paper PMC5908809
